ChEMBL document CHEMBL1201862, “PubChem BioAssay data set” (2004)
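1) Cells in 96-well plates. 2) Compound, 48 h, 5 concentrations. 3) Linear interpolation between surrounding doses. 4) Unreached endpoint = highest concentration. Here, GI50 denotes the concentration required for 50% inhibition of growth.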 The source made the active and inactive calls. Cut-off read from the data, not from the text of the source: active = GI50 up to about 1.1 µM and inactive = higher.

Key:
Experiment in all cases: NCI anticancer screen, dose series, 48 h
[1] = tested on: 786-0
[2] = tested on: A498
[3] = tested on: A549
[4] = tested on: ACHN
[5] = tested on: BT-549
[6] = tested on: CAKI-1
[7] = tested on: COLO 205
[8] = tested on: DU-145
[9] = tested on: EKVX
[10] = tested on: HCT-116
[11] = tested on: HCT-15
[12] = tested on: HL-60
[13] = tested on: HOP-62
[14] = tested on: HOP-92
[15] = tested on: HT-29
[16] = tested on: Hs-578T
[17] = tested on: IGROV-1
[18] = tested on: K562
[19] = tested on: KM12
[20] = tested on: LOX IMVI
[21] = tested on: M14
[22] = tested on: MCF7
[23] = tested on: MDA-MB-231
[24] = tested on: MDA-MB-435
[25] = tested on: MDA-N
[26] = tested on: MOLT-4
[27] = tested on: Malme-3M
[28] = tested on: NCI-H226
[29] = tested on: NCI-H23
[30] = tested on: NCI-H460
[31] = tested on: NCI-H522
[32] = tested on: NCI/ADR-RES
[33] = tested on: OVCAR-3
[34] = tested on: OVCAR-4
[35] = tested on: OVCAR-5
[36] = tested on: OVCAR-8
[37] = tested on: PC-3
[38] = tested on: RPMI-8226
[39] = tested on: RXF 393
[40] = tested on: SF-268
[41] = tested on: SF-295
[42] = tested on: SF-539
[43] = tested on: SK-MEL-28
[44] = tested on: SK-MEL-2
[45] = tested on: SK-MEL-5
[46] = tested on: SN12C
[47] = tested on: SNB-19
[48] = tested on: SR
[49] = tested on: SW-620
[50] = tested on: T47D
[51] = tested on: TK-10
[52] = tested on: U-251
[53] = tested on: UACC-257
[54] = tested on: UACC-62
[55] = tested on: UO-31
[56] = tested on: CCRF-CEM
[57] = tested on: SK-OV-3

Measured: GI50

COc1cc2c3cc1Oc1cc(ccc1O)C[C@@H]1c4c(cc(OC)c(O)c4Oc4ccc(cc4)C[C@@H]3N(C)CC2)CC[N+]1(C)C
70.1 µM: [11]
inactive: [1] 55.3 µM | [2] 81.7 µM | [3] > 100 µM | [4] > 100 µM | [5] > 100 µM | [6] > 100 µM | [7] 77.1 µM | [8] 42 µM | [9] > 100 µM | [10] 48.4 µM | [12] > 100 µM | [13] 6.95 µM | [14] 11.6 µM | [15] 46.5 µM | [16] 13.5 µM | [17] > 100 µM | [18] 42 µM | [19] 27.1 µM | [20] 17.8 µM | [21] 16.8 µM | [22] 22.4 µM | [23] 25.1 µM | [24] 43.7 µM | [25] > 100 µM | [26] 61.8 µM | [27] 17.8 µM | [28] > 100 µM | [29] 52 µM | [30] 33.3 µM | [31] 24.9 µM | [32] > 100 µM | [33] 25.7 µM | [34] 73.8 µM | [35] > 100 µM | [36] 58.7 µM | [37] 21.9 µM | [38] 79.6 µM | [39] 13.6 µM | [40] 32.4 µM | [41] 19.9 µM | [42] 15.1 µM | [43] > 100 µM | [44] 90.2 µM | [45] > 100 µM | [46] > 100 µM | [47] > 100 µM | [48] 24.8 µM | [49] 27.2 µM | [50] 23.8 µM | [51] > 100 µM | [52] 28.9 µM | [53] 56 µM | [54] > 100 µM | [55] > 100 µM

CC1(C)C(CC(=O)O)CCCC1CC(=O)O (stereo not given)
> 100 µM: [11]
inactive: [1] > 100 µM | [2] > 100 µM | [3] > 100 µM | [4] > 100 µM | [5] > 100 µM | [6] > 100 µM | [56] > 100 µM | [7] > 100 µM | [8] > 100 µM | [9] > 100 µM | [10] > 100 µM | [13] > 100 µM | [15] > 100 µM | [16] > 100 µM | [17] > 100 µM | [18] > 100 µM | [19] > 100 µM | [20] > 100 µM | [21] > 100 µM | [22] > 100 µM | [23] > 100 µM | [24] > 100 µM | [25] > 100 µM | [26] > 100 µM | [28] 55.5 µM | [29] > 100 µM | [32] > 100 µM | [33] > 100 µM | [34] > 100 µM | [35] > 100 µM | [36] > 100 µM | [37] > 100 µM | [38] > 100 µM | [39] > 100 µM | [41] > 100 µM | [43] > 100 µM | [44] > 100 µM | [45] > 100 µM | [57] > 100 µM | [46] > 100 µM | [47] > 100 µM | [48] > 100 µM | [49] > 100 µM | [50] > 100 µM | [51] > 100 µM | [52] > 100 µM | [53] > 100 µM | [54] > 100 µM | [55] > 100 µM
